According to paper PMC4508201 (Organic & biomolecular chemistry, 2015):
Read-outs that look alike come from different tables or passages of the source.

Key:
S1PR3 = S1PR3 (Homo sapiens, UniProt Q99500); assay: [32P]S1P competitive cell membrane binding assay, S1PR3
S1PR1 = S1PR1 (Homo sapiens, UniProt P21453); assay: [32P]S1P competitive cell membrane binding assay, S1PR1
recombinant human S1PR2 = recombinant human S1PR2 (Homo sapiens, UniProt O95136); assay: [32P]S1P competitive cell membrane binding assay, S1PR2
recombinant human S1PR2, sequence (O95136 whole entry): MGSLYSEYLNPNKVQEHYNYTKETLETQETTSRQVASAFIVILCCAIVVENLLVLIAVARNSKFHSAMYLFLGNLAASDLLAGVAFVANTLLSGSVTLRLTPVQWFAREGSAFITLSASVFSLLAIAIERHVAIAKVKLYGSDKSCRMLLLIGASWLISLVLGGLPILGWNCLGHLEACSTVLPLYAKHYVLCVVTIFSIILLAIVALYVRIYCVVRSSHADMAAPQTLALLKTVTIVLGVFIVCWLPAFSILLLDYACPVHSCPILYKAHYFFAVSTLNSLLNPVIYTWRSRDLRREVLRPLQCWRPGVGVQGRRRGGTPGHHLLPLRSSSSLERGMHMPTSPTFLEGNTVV

[1] = IC50 S1PR2, competition against [32P]S1P, CHO cell membrane

S1PR3, sequence (Q99500 whole entry, species assumed): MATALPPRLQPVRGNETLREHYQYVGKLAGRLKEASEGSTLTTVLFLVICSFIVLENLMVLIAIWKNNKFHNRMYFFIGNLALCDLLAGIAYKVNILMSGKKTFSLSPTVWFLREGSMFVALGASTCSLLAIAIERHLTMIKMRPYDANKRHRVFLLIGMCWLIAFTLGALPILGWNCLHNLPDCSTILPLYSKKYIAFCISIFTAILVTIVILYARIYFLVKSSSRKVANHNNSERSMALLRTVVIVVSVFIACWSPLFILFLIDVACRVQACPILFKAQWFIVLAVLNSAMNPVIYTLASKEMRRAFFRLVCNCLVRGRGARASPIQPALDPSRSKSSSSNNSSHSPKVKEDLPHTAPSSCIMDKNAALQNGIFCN
S1PR1, sequence (P21453 whole entry, species assumed): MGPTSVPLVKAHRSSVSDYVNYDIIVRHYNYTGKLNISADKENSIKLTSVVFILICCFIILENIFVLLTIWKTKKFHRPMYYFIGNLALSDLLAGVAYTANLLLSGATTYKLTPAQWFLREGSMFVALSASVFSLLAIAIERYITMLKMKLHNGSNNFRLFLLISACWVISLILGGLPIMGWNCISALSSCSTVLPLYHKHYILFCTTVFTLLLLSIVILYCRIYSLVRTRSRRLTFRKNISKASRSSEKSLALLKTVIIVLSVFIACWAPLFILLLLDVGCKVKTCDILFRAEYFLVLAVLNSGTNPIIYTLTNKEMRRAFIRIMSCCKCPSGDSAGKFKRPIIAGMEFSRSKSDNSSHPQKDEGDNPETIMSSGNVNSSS

| SMILES | IC50 (S1PR3) [nM] | IC50 (S1PR1) [nM] | IC50 (recombinant human S1PR2; [1]) [nM] | IC50 S1PR2 (recombinant human S1PR2; competition against [32P]S1P, CHO cell membrane) | IC50 (S1PR3; read-out: IC50 S1PR3, competition against [32P]S1P) [nM] | IC50 (S1PR1; read-out: IC50 S1PR1, competition against [32P]S1P) [nM] | IC50 (recombinant human S1PR2; read-out: IC50 S1PR2, competition against [32P]S1P, CHO cell membrane) [nM] | Binding potency for S1PR2 relative to JTE-013 (recombinant human S1PR2; ratio of IC50 values) |
| --- | --- | --- | --- | --- | --- | --- | --- | --- |
| Cc1nn(C)c2nc(NNC(=O)Nc3cc(Cl)nc(Cl)c3)cc(C(C)C)c12 [JTE-013, reference compound] |  |  |  |  | > 1000 | > 1000 | 68.5 ± 7.45 |  |
| COCn1c(Cl)cc(NC(=O)NNc2cc(C(C)C)c3c(C)nn(C)c3n2)cc1=O [Compound 5d, N-(6-Chloro-1-(methoxymethyl)-2-oxo-1,2-dihydropyridin-4-yl)-2-(4-isopropyl-1,3-dimethyl-1H-pyrazolo[3,4-b]pyridin-6-yl)hydrazine-1-carboxamide] | > 1000 | > 1000 | > 1000 | No binding potency |  |  |  |  |
| COc1cc(NC(=O)NNc2cc(C(C)C)c3c(C)nn(C)c3n2)cc(Cl)n1 [Compound 5a, N-(2-Chloro-6-methoxypyridin-4-yl)-2-(4-isopropyl-1,3-dimethyl-1H-pyrazolo[3,4-b]pyridin-6-yl)hydrazine-1-carboxamide] | > 1000 | > 1000 | 9.52 ± 0.7 |  |  |  |  | seven-fold more potent |
| COCCOc1cc(NC(=O)NNc2cc(C(C)C)c3c(C)nn(C)c3n2)cc(Cl)n1 [Compound 5c, N-(2-Chloro-6-(2-methoxyethoxy)pyridin-4-yl)-2-(4-isopropyl-1,3-dimethyl-1H-pyrazolo[3,4-b]pyridin-6-yl)hydrazine-1-carboxamide] | > 1000 | > 1000 | 234 |  |  |  |  |  |

Continued, in another order:

| IC50 (S1PR3) [nM] | IC50 (S1PR1) [nM] | IC50 (recombinant human S1PR2; [1]) [nM] | IC50 S1PR2 (recombinant human S1PR2; competition against [32P]S1P, CHO cell membrane) | SMILES | IC50 (S1PR3; read-out: IC50 S1PR3, competition against [32P]S1P) [nM] | IC50 (S1PR1; read-out: IC50 S1PR1, competition against [32P]S1P) [nM] | IC50 (recombinant human S1PR2; read-out: IC50 S1PR2, competition against [32P]S1P, CHO cell membrane) [nM] | Binding potency for S1PR2 relative to JTE-013 (recombinant human S1PR2; ratio of IC50 values) |
| --- | --- | --- | --- | --- | --- | --- | --- | --- |
| > 1000 | > 1000 | 8.09 ± 0.91 |  | COCOc1cc(NC(=O)NNc2cc(C(C)C)c3c(C)nn(C)c3n2)cc(Cl)n1 [Compound 5e, N-(2-Chloro-6-(methoxymethoxy)pyridin-4-yl)-2-(4-isopropyl-1,3-dimethyl-1H-pyrazolo[3,4-b]pyridin-6-yl)hydrazine-1-carboxamide] |  |  |  |  |
| > 1000 | > 1000 | 8.12 ± 0.62 |  | Cc1nn(C)c2nc(NNC(=O)Nc3cc(Cl)nc(OCCF)c3)cc(C(C)C)c12 [Compound 5f, N-(2-Chloro-6-(2-fluoroethoxy)pyridin-4-yl)-2-(4-isopropyl-1,3-dimethyl-1H-pyrazolo[3,4-b]pyridin-6-yl)hydrazine-1-carboxamide] |  |  |  |  |
| > 1000 | > 1000 | 135 |  | Cc1nn(C)c2nc(NNC(=O)Nc3cc(F)nc(Cl)c3)cc(C(C)C)c12 [Compound 5b, N-(2-Chloro-6-fluoropyridin-4-yl)-2-(4-isopropyl-1,3-dimethyl-1H-pyrazolo[3,4-b]pyridin-6-yl)hydrazine-1-carboxamide] |  |  |  |  |
